According to US10052310B2, “Separase inhibitors and uses thereof” (Baylor College of Medicine, priority 2013, dated 2018):
“Also recorded” adds a separate entry of the source. Like-named read-outs stand apart in the source and are kept apart here.

Assays:
human cancer cell lines = experiment: MTT assay, summary over all cell lines; assay type: cell-based; conditions: all cell lines of Table 1, 72 h, read-out: range of IC50 over the different cell lines
Protocol: Applicants used the MTT assay to test the inhibitory effect of Sepin-1 on the growth of a variety of human cancer cell lines, including leukemia, breast cancer and neuroblastoma.
(§1) The inhibitory effect of Sepin-1 on cell growth was assayed using the 3-(4,5-dimethylthiazol-2yl)-2,5-diphenyl-tetrazolium bromide (MTT) colorimetric dye reduction method (Cancer Chemother. Pharmacol., 2006, 58, 13-23). One hundred thirty-five μl of exponentially growing cancer cells were plated at a density of 0.4-1.0×10^5 cells/well in a 96-well microtiter plate. After 16 h, Sepin-1 at specified concentrations was added to each well. After 72 h of continuous drug exposure, 15 μl of 5 mg/ml MTT was added to each well and the plates were incubated for 4 h at 37° C. Medium was replaced with 150 μl of DMSO to solubilize the formazan, and the optical density (OD) was measured at 550 nm using a microplate spectrophotometer (Anthos Analytical, Durham, N.C., USA). Cell viability was calculated by subtracting the background OD of media alone from the OD of test wells, then dividing by the OD of the control (untreated) wells. Replicates of 3 wells were used for each drug concentration. The in vitro cytotoxicity assay was repeated once and the IC50 reported was the average of two independent experiments.

Separase = biological target: T1, Separase (Homo sapiens, UniProt Q14674); experiment: Fluorogenic Separase activity assay using (Rad21)2-Rh110 as substrate; assay type: biochemical; conditions: for IC50: (Rad21)2-Rh110 substrate
T1 construct: made in house; host or cells: 293T cells; released from IgG-Agarose by TEV protease
T1 sequence (Q14674 whole entry): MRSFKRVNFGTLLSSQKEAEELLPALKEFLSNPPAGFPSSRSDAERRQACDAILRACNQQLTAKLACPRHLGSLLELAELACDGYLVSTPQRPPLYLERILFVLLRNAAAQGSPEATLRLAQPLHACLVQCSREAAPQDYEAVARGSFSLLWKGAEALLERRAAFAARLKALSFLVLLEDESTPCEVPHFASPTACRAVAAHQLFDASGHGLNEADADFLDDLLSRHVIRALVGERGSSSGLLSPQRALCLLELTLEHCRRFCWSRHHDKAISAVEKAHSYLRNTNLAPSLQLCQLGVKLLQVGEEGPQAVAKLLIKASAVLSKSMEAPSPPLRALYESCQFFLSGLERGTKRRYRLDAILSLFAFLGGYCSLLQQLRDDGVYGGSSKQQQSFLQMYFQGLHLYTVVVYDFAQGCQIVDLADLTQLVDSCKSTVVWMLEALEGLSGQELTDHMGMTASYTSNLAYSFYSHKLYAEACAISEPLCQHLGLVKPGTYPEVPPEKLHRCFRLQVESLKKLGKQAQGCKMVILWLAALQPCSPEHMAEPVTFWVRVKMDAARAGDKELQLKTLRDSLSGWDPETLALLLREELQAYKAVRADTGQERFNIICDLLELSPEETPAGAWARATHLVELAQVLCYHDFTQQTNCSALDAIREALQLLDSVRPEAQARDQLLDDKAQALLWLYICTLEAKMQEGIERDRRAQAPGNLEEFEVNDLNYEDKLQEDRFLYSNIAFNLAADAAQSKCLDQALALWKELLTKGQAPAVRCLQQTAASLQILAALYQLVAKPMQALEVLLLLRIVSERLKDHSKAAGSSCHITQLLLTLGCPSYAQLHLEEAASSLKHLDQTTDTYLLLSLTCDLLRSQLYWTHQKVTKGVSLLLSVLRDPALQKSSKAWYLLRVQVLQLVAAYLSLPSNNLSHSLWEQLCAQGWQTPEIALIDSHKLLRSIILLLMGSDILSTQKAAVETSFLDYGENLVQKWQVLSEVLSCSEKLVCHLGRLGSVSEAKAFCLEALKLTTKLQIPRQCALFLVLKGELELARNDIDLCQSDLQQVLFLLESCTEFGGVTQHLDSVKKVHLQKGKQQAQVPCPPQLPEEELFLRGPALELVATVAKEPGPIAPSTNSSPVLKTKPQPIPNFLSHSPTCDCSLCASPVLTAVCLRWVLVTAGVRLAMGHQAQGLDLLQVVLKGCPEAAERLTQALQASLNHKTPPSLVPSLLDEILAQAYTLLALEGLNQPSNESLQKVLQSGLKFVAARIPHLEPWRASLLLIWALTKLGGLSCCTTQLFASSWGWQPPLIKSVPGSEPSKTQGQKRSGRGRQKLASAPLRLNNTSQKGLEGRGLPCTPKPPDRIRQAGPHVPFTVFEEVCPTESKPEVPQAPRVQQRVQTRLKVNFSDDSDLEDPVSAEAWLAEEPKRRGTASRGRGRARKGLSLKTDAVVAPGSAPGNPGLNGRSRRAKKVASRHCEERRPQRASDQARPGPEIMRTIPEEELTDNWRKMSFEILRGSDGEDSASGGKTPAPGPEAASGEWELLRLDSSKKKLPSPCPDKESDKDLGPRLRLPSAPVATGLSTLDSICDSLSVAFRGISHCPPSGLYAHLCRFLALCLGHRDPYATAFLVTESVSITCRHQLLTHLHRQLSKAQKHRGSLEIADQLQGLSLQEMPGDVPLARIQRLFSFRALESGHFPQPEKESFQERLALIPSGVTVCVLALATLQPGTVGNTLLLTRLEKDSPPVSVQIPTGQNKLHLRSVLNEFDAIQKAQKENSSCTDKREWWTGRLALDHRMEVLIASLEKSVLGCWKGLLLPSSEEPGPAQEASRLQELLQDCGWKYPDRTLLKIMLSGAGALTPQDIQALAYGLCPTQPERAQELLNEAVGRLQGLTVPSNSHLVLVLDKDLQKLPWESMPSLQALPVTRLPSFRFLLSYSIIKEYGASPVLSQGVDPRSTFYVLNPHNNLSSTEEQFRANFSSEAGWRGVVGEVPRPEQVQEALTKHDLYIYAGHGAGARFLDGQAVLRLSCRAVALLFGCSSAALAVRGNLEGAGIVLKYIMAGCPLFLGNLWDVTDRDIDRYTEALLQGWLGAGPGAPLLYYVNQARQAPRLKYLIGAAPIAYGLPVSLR
Protocol: The substrate used in this Example is (Rad21)2-Rh110, which has two Rad21 peptide molecules (Asp-Arg-Glu-Ile-Nle-Arg) conjugated to one molecule of Rhodamine 110 (Rh110) (CPC Scientific, Sunnyvale Calif.). The assay was set up using 384-well low volume black polystyrene plates (Corning, N.Y.). Fifteen micro liter of activated Separase (˜5 ng) was mixed with 5 μl of test compound. The cleavage buffer (CB) used to dilute reagents was (30 mM Hepes-KOH pH7.7, 50 mM NaCl, 25 mM NaF, 25 mM KCl, 5 mM MgCl2, 1.5 mM ATP, and 1 mM EGTA). The mixture was incubated at room temperature for 1 h, and then 5 μl of 0.2 mM substrate (Rad21)2-Rh110 was added. The positive control contained Separase, substrate and CB without the test compound. The negative control contained substrate and CB only. After the reaction mixture was incubated at 37° C. for 3 h, the relative fluorescence intensity was measured (without stopping the enzymatic activity) at λex=390 nm/λem=450 nm for […] (AMC) released from Rad21-MCA or λex=490 nm/λem=528 nm for Rh110 released from (Rad21)2-Rh110 using a Synergy™ 4 Multi-Mode Microplate Reader (BioTek Instruments Inc., Winooski, Vt.).
Different amounts of Sepin-1 were mixed with activated Separase for 30 min before substrate (Rad21)2-Rh110 was added. After 3 h incubation at 37° C., the fluorescence intensity of Rh110 was determined. IC50 was calculated using either KaleidaGraph program (Synerge software, Reading, Pa.) or four parameter logistic equation (4-parameter dose-response curve fit): Inhibition of Activity (%)=min+(max−min)/{1+(log [M]/IC50)}^Hill Slop, where “min” and “max” represent minimal and maximal activity inhibition, respectively. Hill Slop is the slope of the curve at its midpoint. To identify the mode of Sepin-1 interacting with Separase, different amounts of both Sepin-1 and (Rad21)2-Rh110 were used in the Separase activity assay.

SY5Y = experiment: MTT in vitro cytotoxicity assay; assay type: cell-based; conditions: Homo sapiens, Neuroblastoma, 72 h, read-out: IC50 growth inhibition
Protocol: as §1

MDAMB231 = experiment: MTT in vitro cytotoxicity assay; assay type: cell-based; conditions: Homo sapiens, MDA-MB-231, MDAMB231, Breast, 72 h, read-out: IC50 growth inhibition
Protocol: as §1

MCF10F = experiment: MTT in vitro cytotoxicity assay; assay type: cell-based; conditions: Homo sapiens, MCF-10F, Breast, 72 h, read-out: IC50 growth inhibition
Protocol: as §1

LAN-5 = experiment: MTT in vitro cytotoxicity assay; assay type: cell-based; conditions: Homo sapiens, LA-N-5, LAN-5, Neuroblastoma, 72 h, read-out: IC50 growth inhibition
Protocol: as §1

Jurkat = experiment: MTT in vitro cytotoxicity assay; assay type: cell-based; conditions: Homo sapiens, Leukemia, 72 h, read-out: IC50 growth inhibition
Protocol: as §1

HCT116 = experiment: MTT in vitro cytotoxicity assay; assay type: cell-based; conditions: Homo sapiens, HCT-116, HCT116, Colon, 72 h, read-out: IC50 growth inhibition
Protocol: as §1

SK-N-BE(2) = experiment: MTT in vitro cytotoxicity assay; assay type: cell-based; conditions: Homo sapiens, SKNBE2, Neuroblastoma, 72 h, read-out: IC50 growth inhibition
Protocol: as §1

CHLA-02-ATRT = experiment: MTT in vitro cytotoxicity assay; assay type: cell-based; conditions: Homo sapiens, Brain, 72 h, read-out: IC50 growth inhibition
Protocol: as §1

Molt4 = experiment: MTT in vitro cytotoxicity assay; assay type: cell-based; conditions: Homo sapiens, MOLT-4, Molt4, Leukemia, 72 h, read-out: IC50 growth inhibition
Protocol: as §1

KCNR = experiment: MTT in vitro cytotoxicity assay; assay type: cell-based; conditions: Homo sapiens, Neuroblastoma, 72 h, read-out: IC50 growth inhibition
Protocol: as §1

SK-BR-3 = experiment: MTT in vitro cytotoxicity assay; assay type: cell-based; conditions: Homo sapiens, SK-BR-3, Breast, 72 h, read-out: IC50 growth inhibition
Protocol: as §1

TT = experiment: MTT in vitro cytotoxicity assay; assay type: cell-based; conditions: Homo sapiens, Thyroid, 72 h, read-out: IC50 growth inhibition
Protocol: as §1

IMR-32 = experiment: MTT in vitro cytotoxicity assay; assay type: cell-based; conditions: Homo sapiens, IMR-32, Neuroblastoma, 72 h, read-out: IC50 growth inhibition
Protocol: as §1

HL60 = experiment: MTT in vitro cytotoxicity assay; assay type: cell-based; conditions: Homo sapiens, HL-60, HL60, Leukemia, 72 h, read-out: IC50 growth inhibition
Protocol: as §1

T47D = experiment: MTT in vitro cytotoxicity assay; assay type: cell-based; conditions: Homo sapiens, Breast, 72 h, read-out: IC50 growth inhibition
Protocol: as §1

MDA436 = experiment: MTT in vitro cytotoxicity assay; assay type: cell-based; conditions: Homo sapiens, MDA436, Breast, 72 h, read-out: IC50 growth inhibition
Protocol: as §1

mice = experiment: Repeated intraperitoneal dosing tolerability in mice; assay type: in vivo; conditions: 10 mg/kg intraperitoneal injection daily for six weeks, 12 mice

Question: What does the source list for `CC1(C)[N+]([O-])=c2ccc([N+](=O)[O-])cc2=[N+]1[O-]` [Sepin-1, 2,2-dimethyl-5-nitro-2H-benzimidazole-1,3 dioxide]?
Answer: IC50 (human cancer cell lines): ≥ 1 µM; effect of 0.1% Tween-20 or 1% BSA on inhibition kinetics (Separase; 0.1% Tween-20 or 1% BSA in the reaction mixture): did not affect the kinetics of Sepin-1 in inhibiting Separase activity; IC50 (Separase; calculated using KaleidaGraph, read-out: IC50 of Separase activity inhibition): 14.8 µM; IC50 (Separase; four-parameter fit, n=3, read-out: estimated IC50, four-parameter dose-response curve fit): 15.8 µM; dose dependence of Separase activity inhibition (Separase; FIG. 9B): dose-dependent inhibition of Separase activity; mode of inhibition (effect on Km and Vmax) (Separase; Lineweaver-Burk plot, Sepin-1 mixed with Separase 30 min before substrate): did not affect the Km but reduced the Vmax; also recorded: reduced the speed (Vmax) of substrate conversion by Separase, but not the Km; verified activity in inhibiting Separase enzymatic activity (Separase; re-test of HTS hits): highest activity; IC50 (SY5Y): 4.9 µM; IC50 (MDAMB231): 21.5 µM; IC50 (MCF10F): 48.4 µM; IC50 (LAN-5): 5 µM; IC50 (Jurkat): 14 µM; IC50 (HCT116): 16 µM; IC50 (SK-N-BE(2)): 8.6 µM; IC50 (CHLA-02-ATRT): 7.6 µM; IC50 (Molt4): 3.2 µM; IC50 (KCNR): 4.9 µM; IC50 (SK-BR-3): 9 µM; IC50 (TT): 33.5 µM; IC50 (IMR-32): 4.8 µM; IC50 (HL60): 9 µM; IC50 (T47D): 30.8 µM; IC50 (MDA436): 17.8 µM; weight loss and adverse effects (mice): no weight loss or apparent adverse effects
